From ChEMBL document CHEMBL1137053, “QSAR modeling of the MAO inhibitory activity of xanthones derivatives” (Bioorg Med Chem Lett, 2004)

biological target: T1, Amine oxidase [flavin-containing] A (Homo sapiens, UniProt P21397); assay: Concentration required to inhibit monoamine oxidase activity by 50%
T1 sequence (P21397 whole entry): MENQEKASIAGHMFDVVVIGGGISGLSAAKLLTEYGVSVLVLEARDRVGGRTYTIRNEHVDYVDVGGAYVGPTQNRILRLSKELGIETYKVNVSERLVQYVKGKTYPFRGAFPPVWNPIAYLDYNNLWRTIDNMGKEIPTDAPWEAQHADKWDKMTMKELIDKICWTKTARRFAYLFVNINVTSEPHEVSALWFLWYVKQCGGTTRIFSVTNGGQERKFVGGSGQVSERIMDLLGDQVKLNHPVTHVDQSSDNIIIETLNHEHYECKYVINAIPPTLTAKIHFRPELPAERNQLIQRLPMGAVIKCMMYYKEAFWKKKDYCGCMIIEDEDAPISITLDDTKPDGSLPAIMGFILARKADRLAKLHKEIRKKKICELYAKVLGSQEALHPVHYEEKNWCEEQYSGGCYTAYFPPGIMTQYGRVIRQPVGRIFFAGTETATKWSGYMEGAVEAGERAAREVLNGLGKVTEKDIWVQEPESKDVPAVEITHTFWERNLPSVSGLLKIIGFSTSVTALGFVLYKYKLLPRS

SMILES | IC50 [µM]
COc1ccc2c(=O)c3ccccc3oc2c1OC | 31
O=c1c2ccccc2oc2cccc(O)c12 | 0.31
COc1c(O)cc2oc3c(OC)cccc3c(=O)c2c1O | 51
O=c1c2cccc(O)c2oc2cc(O)cc(O)c12 | 3.8
O=c1c2ccccc2oc2ccccc12 [XANTHONE] | 0.84
O=c1c2cc(O)ccc2oc2cc(O)cc(O)c12 | 8
Cc1c(O)c(Cl)c2oc3ccccc3c(=O)c2c1O | 27
COc1ccc2oc3ccccc3c(=O)c2c1 | 5.3
COc1cc(O)c2c(=O)c3ccccc3oc2c1 | 0.11
COc1cccc2c(=O)c3ccc(O)cc3oc12 | 23
Cc1c(O)cc(O)c2c(=O)c3ccccc3oc12 | 4.3
COc1cc(O)c2c(=O)c3cccc(O)c3oc2c1 | 0.04
COc1cc(O)c2c(=O)c3c(OC)c(OC)ccc3oc2c1 [DECUSSATIN] | 19
COc1cc(O)c2oc3c(C)ccc(OC)c3c(=O)c2c1 | 24
O=c1c2cc(O)c(O)cc2oc2cc(O)cc(O)c12 | 25
CC(C)=CCC/C(C)=C\Cc1c(O)cc(O)c2c(=O)c3cccc(O)c3oc12 | 37
O=c1c2ccccc2oc2c(O)cccc12 | 1.3
COc1cc(O)c2c(=O)c3c(O)ccc(O)c3oc2c1 [BELLIDIFOLIN] | 0.66
COc1cccc2oc3ccccc3c(=O)c12 | 0.9
O=c1c2c(O)cc(O)cc2oc2ccc(O)c(O)c12 | 24
Cc1c(O)cc2oc3ccccc3c(=O)c2c1O | 3.7
COc1ccc2c(=O)c3ccccc3oc2c1 | 0.18
COc1c(O)ccc2c(=O)c3ccccc3oc12 | 65
O=c1c2ccccc2oc2ccc(O)cc12 | 3.8

More lines, in order of falling IC50, values ahead:

IC50 [µM] | SMILES
58 | COc1cc(OC)c2c(=O)c3cccc(OC)c3oc2c1
51 | COc1cccc2oc3c(O)cccc3c(=O)c12
40 | CC(C)=CCc1cc(O)c2c(=O)c3cccc(O)c3oc2c1O
37 | COc1cc2oc3c(OC)cccc3c(=O)c2c(OC)c1OC
36 | COc1ccc2c(=O)c3cccc(OC)c3oc2c1
32 | COc1c(O)cc2oc3c(OC)c(O)ccc3c(=O)c2c1O
30 | COc1cccc2c(=O)c3ccccc3oc12
29 | COc1cc(O)c2c(=O)c3cccc(OC)c3oc2c1
20.2 | COc1cc(OC)c2c(=O)c3ccccc3oc2c1
18 | COc1ccc2c(=O)c3ccccc3oc2c1O
14.9 | Cc1c(O)c(Br)c2oc3ccccc3c(=O)c2c1O
13 | O=c1c2c(O)cc(O)cc2oc2c(O)ccc(O)c12 [DEMETHYLBELLIDIFOLIN]
8.5 | COc1cc(O)c2c(=O)c3c(O)c(O)ccc3oc2c1 [GENTIAKOCHIANIN]
4.5 | O=c1c2ccc(O)cc2oc2c(O)cccc12
3.3 | CC(C)=CCc1cc(O)c2oc3c(O)cccc3c(=O)c2c1O
2.7 | COc1c(O)cc2oc3c(O)cccc3c(=O)c2c1O
1.1 | O=c1c2ccccc2oc2cc(O)ccc12
0.73 | O=c1c2cccc(O)c2oc2cccc(O)c12
